Here are results for 13 molecules from patent US5155126A, “Treatment of central nervous system disorders with pyrazole, pyrrole and triazole angiotensin-II receptor antagonists” (E. I. du Pont de Nemours and Company, priority 1991, dated 1992).

The test system of test [1] is AII binding sites in the brain. Briefly: Binding of AII antagonists to sections of brain slices. Conditions: in words.
Test [2] relates to renin-induced disruption of passive avoidance retention. Briefly: Renin-disrupted passive avoidance retention. Format: in vivo, male Sprague-Dawley rats. Conditions: for effect on memory / renin-induced amnesia: IVT, in words. Here is the method: Experimentally naive male Sprague-Dawley rats […] (Charles River Breeding Laboratories, Kingston, N.Y.), weighing between 175 to 200 gm were used. The animals were housed four per cage (45.0 L × 20.0 H × 26.0 W cm) with free access to food and water. They were maintained on a 12 h light/dark cycle (lights on 0600 h) and at a room temperature of 22±1° C. with relative humidity of 50±10%.
The experimental sessions were conducted in a two-compartment passive avoidance box. One compartment, made of clear plastic with a perforated clear plastic floor, measured 21(L)=24.5(H)=17(W) cm and was illuminated with a 60 watt incandescent light bulb placed 36 cm above the floor. The other compartment, made of black plastic, measured 30.5 (L)×20.3 (H)×21.5 (W) cm with a floor made of 4 mm stainless steel rods spaced 1.2 cm apart. A grid floor shocker (Coulbourn Instruments) was connected to the steel rods and provided scrambled footshock. The two compartments were separated by a solenoid-operated slide door (Lafayette Instrument Co., Lafayette, Ind.). An electronic counter (Coulbourn Instruments), triggered by the opening or closing of the slide door, recorded acquisition and retention latencies (latencies were defined as the time it took an animal to enter the dark compartment).
Passive avoidance training began by placing the rat into the clear compartment of the two-compartment passive avoidance box. Following a 10 sec delay, the slide door to the dark compartment was raised. Once the rat moved completely into the dark compartment (all four paws on the shock grid floor) the slide door was lowered, and after a 10 sec delay, a 1.0 mA shock was applied to the grid floor for three sec. A second three s shock was delivered after an additional 10 sec delay. The rats were immediately removed from the dark compartment and returned to their home cage. A retention test was given 24 h later. It proceeded in the same manner as the training session except that no shock was applied to the grid floor when the rats were provided access to the dark compartment for a maximum of 300 sec.
All drugs were administered IVT 60 minutes prior to acquisition training in a volume of 5 μL. Doses are expressed as the free base weight of each compound.

In test [3] the test system is retention of a passive avoidance response. Conditions: injected into dorsal neostriatum; in words; cited from earlier work.
For test [4], the system named is potassium-stimulated release of ACh in entorhinal cortex. The note with it: in vitro, entorhinal cortex from rat brain; in words; cited from earlier work.
The test system of another test is uphill avoidance. Conditions: acute 30 mg/kg PO; in words; cited from earlier work.
Test [5] has as its system scopolamine-induced PA amnesia. Conditions: three times per day at 1, 3 and 10 mg/kg PO; in words; cited from earlier work.
The subject of test [6] is ACh in the striatum and hypothalamus. Conditions: acute or repeated administration; in words; cited from earlier work.
In test [7] the test system is scopolamine-induced impairment of eight arm radial maze performance. The note with it: 3 mg/kg IP; in words; cited from earlier work.
For test [8], the system named is AII-2 receptor (AII receptor subtype-2). Conditions: in words; cited from earlier work.
Test [9] has as its system scopolamine-induced disruption of performance. Conditions: daily treatment; in words; cited from earlier work.
Another test deals with avoidance learning. The note with it: renin into lateral ventricle; captopril IVT prior to renin; in words; cited from earlier work.
The test system of test [10] is light/dark habituation performance. Conditions: subchronic treatment; in words; cited from earlier work.
For a further test, the system named is AII-1 receptor. Briefly: AII-1 receptor antagonism (statement). The note with it: in words.
The subject of test [11] is memory of previously learned tasks; anticholinergic effect on performance. Conditions: in words; cited from earlier work.
Test [12] relates to AII in cerebrospinal fluid. Conditions: after renin IVT; increased from 40; cited from earlier work.

Several values for one entry are separate records, joined by “and”; a condition that tells them apart may be missing. Identical values can stand only once. Entries after “also recorded” stand apart in the source; their conditions may differ.

Regarding `Cc1cc(Cn2cnc3c2CC(C(=O)O)N(C(=O)C(c2ccccc2)c2ccccc2)C3)ccc1N` (stereo not shown) [EXP655, 1-(4-amino-3-methylphenyl)methyl-5-diphenylacetyl-4,5,6,7-tetrahydro-1H-imidazo[4,5-c]pyridine-6-carboxylic acid], the “sensitivity of AII binding sites in brain” value in [1] was “the majority of binding sites in the brain are DTT-insensitive and EXP655-sensitive”. Further, in [2], the “effect on memory / renin-induced amnesia” value is reported as “less effective in preventing amnesia”.
As for “AII: Angiotensin-II, a circulating hormone thought to act as a neuropeptide in the CNS (DRVYIHPF; Angiotensin-2; UniProt P01019 25-32, looked up)”, in [3], the “effect on retention of a PA response” value is “disruption in retention of a PA response”. In addition, the “effect on potassium-stimulated release of ACh” value (from here on “effect … of ACh”) in test [4] is “can inhibit the release of ACh”.
In the case of `CCOC(=O)C(CCc1ccccc1)NC(C)C(=O)N1CC2(CC3CCC2CC3)CC1C(=O)O` (stereo not shown) [Hoe 288], the “performance during retention testing, uphill avoidance” value in the test on uphill avoidance is “improved performance during retention testing”. For the same molecule, the “effect on scopolamine-induced PA amnesia” value in test [5] is recorded as “partially reversed the amnesia”. Further, the “change of ACh in striatum and hypothalamus” value in test [6] is given as “significant decrease in ACh”. Also, the “effect of muscarinic receptor blockade on performance” value in [7] is given as “partially antagonized the effects of muscarinic receptor blockade”.
`O[C@H](CS)[C@H](O)CS` (racemic) [DTT, dithiothreitol]: in test [8], the “inactivation of AII-2 receptor by DTT” value is recorded as “resistant to DTT inactivation”.
Regarding “AI: printed "AI, but not AI" in b14 (DRVYIHPFHL; Angiotensin-1; UniProt P01019 25-34, looked up)”, the “effect … of ACh” value in test [4] is listed as “reduced potassium-stimulated release of ACh without effects on basal levels”.
On to lysine-8-vasopressin, for which the “effect on retention of a PA response” value in test [3] is given as “no effect”.
Take `C[C@H](CS)C(=O)N1CCC[C@H]1C(=O)O` [captopril]: the “scopolamine-induced disruption of performance” value in test [9] was “prevented”. Further, the “effect on avoidance learning” value with avoidance learning is “prevented the renin-induced avoidance disruption”. For the same molecule, the “effect on memory / renin-induced amnesia” value in [2] is listed as “prevented”. For the same molecule, the “rate of acquisition of light/dark habituation performance” value in [10] was “increased the rate of acquisition”.
With `CCCc1nc(C(F)(F)F)c(C(=O)O)n1Cc1ccc(-c2ccccc2-c2nnn[nH]2)cc1` [Compound C, 2-n-propyl-1-[(2'-(1H-tetrazol-5-yl)biphenyl-4-yl)methyl]-4-trifluoromethylimidazole-5-carboxylic acid], the “AII-1 receptor antagonist activity” value in the test with AII-1 receptor is “AII-1 receptor antagonists”. Moreover, the “effect on memory / renin-induced amnesia” value in [2] is listed as “protected against amnesia”.
As to `NCCCC[C@H](OP(=O)(O)CCCCc1ccccc1)C(=O)N1CCC[C@H]1C(=O)O` [SQ 29852], in test [11], the “effect on anticholinergic effect on performance” value is “ameliorate, at least in part” and the “effect on memory of previously learned tasks” value is “protective effects on memory of previously learned tasks”.
Turning to `CCCc1nc(C(F)(F)F)c(CO)n1Cc1ccc(-c2ccccc2-c2nnn[nH]2)cc1` [Compound D, 2-n-propyl-5-hydroxymethyl-1-[(2'-(1H-tetrazol-5-yl)biphenyl-4-yl)methyl]-4-trifluoromethylimidazole], in the test on AII-1 receptor, the “AII-1 receptor antagonist activity” value is listed as “AII-1 receptor antagonists”. Also, the “effect on memory / renin-induced amnesia” value in [2] is “protected against amnesia”.
As for `NC(=O)[C@@H]1CCCN1C(=O)[C@H](Cc1cnc[nH]1)NC(=O)[C@@H]1CCC(=O)N1` [thyrotropin releasing hormone], the “effect on retention of a PA response” value in test [3] is “no effect”.
For “[1-sarcosine, 8-threonine]angiotensin-II”, the “effect … of ACh” value in test [4] is “antagonized”.

B1: renin: Renin (Sigma Chemicals), a stimulator of endogenous AII biosynthesis (protein, UniProt P00797 67-406, looked up)
Renin: LTLGNTTSSVILTNYMDTQYYGEIGIGTPPQTFKVVFDTGSSNVWVPSSKCSRLYTACVYHKLFDASDSSSYKHNGTELTLRYSTGTVSGFLSQDIITVGGITVTQMFGEVTEMPALPFMLAEFDGVVGMGFIEQAIGRVTPIFDNIISQGVLKEDVFSFYYNRDSENSQSLGGQIVLGGSDPQHYEGNFHYINLIKTGVWQIQMKGVSVGSSTLLCEDGCLALVDTGASYISGSTSSIEKLMEALGAKKRLFDYVVKCNEGPTLPDISFHLGGKEYTLTSADYVFQESYSSKKLCTLAIHAMDIPPPTGPTWALGATFIRKFYTEFDRRNNRIGFALAR
In the case of B1, the “AII in cerebrospinal fluid” value in test [12] is “about 5000 fmol per mL”. Moreover, the “effect on avoidance learning” value in the test with avoidance learning was “disruption of avoidance learning”. Moreover, in test [2], the “effect on memory / renin-induced amnesia” value was “produces memory deficit; also recorded: dose-related amnesia”. The “Median Retention Latency” value in test [2] (renin 1.0 μg/5 μL IVT alone) is 48 s and 32 s and 27 s; in test [2] (renin 5.0 μg/5 μL IVT alone), 17 s.
